Measured values published in US7855232B2, “Organoselenium compound for cancer chemoprevention” (LKT Laboratories, Inc., priority 2001, dated 2010).
Marks after values point to notes of the source that are not given here.

What was measured:
Type in all cases: in vivo, Female A/J mice
[1] = system: UDP-Glucuronosyltransferase (UDP-GT); experiment: UDP-glucuronosyltransferase (UDP-GT) activity in liver microsomes of treated mice, o-aminophenol substrate; settings: for Ratio Test/con (UDP-GT): gavage; for UDP-GT activity (column head prints GSH conc.): gavage in corn oil
Description: Microsomal samples were assayed for enzymatic conjugation by modifying the procedure of Zakim et al., Methods of Biochemical Analysis, ed. David Glick, 21:1-37, (1973). using o-aminophenol as the substrate. The complete assay solution contains, in a total volume of 500 μl, 0.25 M phosphate buffer (pH 7.6), 0.002 M o-aminophenol, 0.05 M UDPGA, 0.125 M magnesium chloride and 100 μl microsomes. The mixture was incubated for 30 minutes. Reactions were stopped by the addition of 500 μl of TCA-sodium phosphate reagent. The precipitated protein was removed, 100 μl of 0.05% sodium nitrite was added to 950 μl of the supernatent solution and allowed to stand for 5 minutes. 100 μl of 0.5% ammonium sulfamate was added, after 5 minutes. 100 μl of 0.12% N-(-1-naphthyl)ethylenediamine dihydrochloride was added and incubated for 2 hours in the dark; and the difference in the optical density between the blanks and the samples were recorded at 555 nm in a Beckman model DU65 UV-VIS spectrophotometer. The UDP-GT activity was calculated using the extinction coefficient 29 mM-1 cm-1 for the coupled product.

GSH = experiment: Glutathione (GSH) concentration in tissues of treated mice, HPLC; settings: for Ratio Test/con (GSH): gavage; for GSH conc.: gavage in corn oil
Description: GSH was quantitated by modification of the procedure Siller-Cepeda et al. Plant Cell Physiol. 32:1179-1185 (1991). Aliquots of tissue homogenates were mixed with equal volumes of 20% PCA containing 2 mM BPDS. Vortex, centrifuge at 7800×g for 15 minutes at 4° C. and 250 μl supernatant transferred into a microfuge tube containing 25 μl of γ-glu-glu as internal standard. The samples were carboxymethylated with 25 μl of 100 mM iodoacetic acid dissolved in 0.2 mM m-cresol purple sodium salt solution. The pH of the solution was adjusted to 9-10 by adding 350 μl of KOH (2M)-KHCO3 (2.4 M) mixture and incubated in the dark for 15 minutes. After carboxymethylation, the samples were derivatized with 500 μl of 1% dinitrofluorobenzene (DNFB) and kept in the dark at 4° C. overnight. The samples were centrifuged at 13,000×g for 15 minutes, filtered through 0.2 μm filter, and were analyzed with a SHIMADZU two-pump gradient HPLC system. Samples were injected by a SHIMADZU SIL-10AV Autoinjector onto a Varian 3-aminopropyl MICROSORB-MV column (4.6×250 mm) operated at ambient temperature with a flow rate of 1 ml/min. Absorbance of the dinitrophenyl derivatives was monitored at 365 nm. The amount of GSH was calculated from a standard curve using γ-glu-glu as internal standard.

[2] = system: Glutathione S-Transferase; experiment: Glutathione S-transferase (GST) activity in tissue cytosol of treated mice, CDNB substrate; settings: for Ratio Test/con (GST): gavage; for GST act.: gavage in corn oil
Description: The activity of cytosolic was assayed according to the method of Habig et al. using 1-chloro-2,4-dinitrobenzene (CDNB) as the substrate. Habig et al, J. Biol. Chem. 249:7130-7139 (1974). The complete solution contains, in a total volume of 2.0 mL, 0.1 M phosphate buffer, pH 6.5, 5 mM glutathione, 1 mM CDNB, and 20 μL of the cytosol. The reaction was monitored at 340 nm in a Beckman Model DU65 UV-VIS spectrophotometer. Assays were performed at 30° C. Complete assay mixture without the cytosolic enzyme was used as the reference blank. Data as analyzed by the Student's “t” test and P values were obtained in comparison to the control.

[3] = liver, dose 0.02 mmol/Kg body weight
[4] = liver, dose 0.04 mmol/Kg body weight
[5] = small intestinal mucosa, dose 0.02 mmol/Kg body weight
[6] = small intestinal mucosa, dose 0.04 mmol/Kg body weight
[7] = colon, dose 0.02 mmol/Kg body weight
[8] = colon, dose 0.04 mmol/Kg body weight
[9] = forestomach, dose 0.02 mmol/Kg body weight
[10] = forestomach, dose 0.04 mmol/Kg body weight
[11] = lung, dose 0.02 mmol/Kg body weight
[12] = lung, dose 0.04 mmol/Kg body weight

| Compound | Ratio Test/con (UDP-GT) ([1]; dose 0.02 mmol/Kg body weight) | UDP-GT activity (column head prints GSH conc.) ([1]; dose 0.02 mmol/Kg body weight) | Ratio Test/con (UDP-GT) ([1]; dose 0.04 mmol/Kg body weight) | UDP-GT activity (column head prints GSH conc.) ([1]; dose 0.04 mmol/Kg body weight) | Ratio Test/con (GSH) (GSH; [3]) | GSH conc. (GSH; [3]) | Ratio Test/con (GSH) (GSH; [4]) | GSH conc. (GSH; [4]) | Ratio Test/con (GSH) (GSH; [6]) | Ratio Test/con (GST) [2, 7] | GST act. [2, 7] | Ratio Test/con (GST) [2, 8] | Ratio Test/con (GST) [2, 9] | GST act. [2, 9] | Ratio Test/con (GST) [2, 3] | GST act. [2, 3] | Ratio Test/con (GST) [2, 11] | GST act. [2, 11] | Ratio Test/con (GST) [2, 5] | GST act. [2, 5] | also measured |
| --- | --- | --- | --- | --- | --- | --- | --- | --- | --- | --- | --- | --- | --- | --- | --- | --- | --- | --- | --- | --- | --- |
| N#C[Se]Cc1ccc[se]1 [(3) SMSC, 2-selenophenyl methylene selenocynate] | 1.52 | 6.15 ± 1.20 ^d nmol/min/mg protein | 2.36 | 9.56 ± 4.23 ^d nmol/min/mg protein | 0.98 | 3.49 ± 0.90 μmol/gm tissue weight | 1.38 | 4.89 ± 0.57^c μmol/gm tissue weight | 1.00 | 1.08 | 0.70 ± 0.05 μmol/min mg protein | 1.06 | 0.8 | 0.89 ± 0.22 μmol/min mg protein | 0.81 | 1.04 ± 0.18 ^g μmol/min mg protein | 1.18 | 0.40 ± 0.03 ^f μmol/min mg protein | 0.86 | 0.19 ± 0.5 μmol/min mg protein | Ratio Test/con (GSH) (GSH; [5]): 0.89; GSH conc. (GSH; [5]): 1.88 ± 0.4 μmol/gm tissue weight; GST act. [2, 8]: 0.69 ± 0.09 μmol/min mg protein; Ratio Test/con (GST) [2, 10]: 1.01; GST act. [2, 10]: 1.12 ± 0.19 μmol/min mg protein; Ratio Test/con (GST) [2, 4]: 1.58; GST act. [2, 4]: 2.02 ± 0.33 ^e μmol/min mg protein; Ratio Test/con (GST) [2, 12]: 1.00; GST act. [2, 12]: 0.34 ± 0.06 μmol/min mg protein; Ratio Test/con (GST) [2, 6]: 0.91; GST act. [2, 6]: 0.20 ± 0.02 μmol/min mg protein |
| [Se]=C=NCc1ccc(CN=C=[Se])[se]1 [(7) SDMISC, selenophenyl-2,5-di-methylene isoselenocyanate] | 2.56 | 10.37 ± 1.99 ^d nmol/min/mg protein | 1.60 | 6.46 ± 1.95 nmol/min/mg protein | 1.30 | 4.63 ± 1.30 μmol/gm tissue weight | 1.20 | 4.25 ± 1.02 μmol/gm tissue weight | 1.90 | 1.23 | 0.80 ± 0.03 ^c μmol/min mg protein | 1.34 | 1.10 | 1.22 ± 0.21 μmol/min mg protein | 2.39 | 3.06 ± 0.41 ^e μmol/min mg protein | 1.31 | 0.45 ± 0.04 ^f μmol/min mg protein | 2.26 | 0.50 ± 0.14 ^e μmol/min mg protein | Ratio Test/con (GSH) (GSH; [5]): 1.36; GSH conc. (GSH; [5]): 2.86 ± 0.14^c μmol/gm tissue weight; GSH conc. (GSH; [6]): 4.00 ± 0.35^d μmol/gm tissue weight; dose response of GST induction (in words) ([2]; colon): dose response induction; GST act. [2, 8]: 0.87 ± 0.03 ^e μmol/min mg protein; Ratio Test/con (GST) [2, 10]: 1.14; GST act. [2, 10]: 1.27 ± 0.28 μmol/min mg protein; Ratio Test/con (GST) [2, 4]: 2.34; GST act. [2, 4]: 3.00 ± 0.13 ^c μmol/min mg protein; Ratio Test/con (GST) [2, 12]: 1.16; GST act. [2, 12]: 0.40 ± 0.04 μmol/min mg protein; Ratio Test/con (GST) [2, 6]: 2.82; GST act. [2, 6]: 0.62 ± 0.04 ^c μmol/min mg protein; Ratio Test/con (GST) ([2]; small intestinal mucosa, dose 0.04 mmol/Kg body weight, listed as SDMISC 7): 2.83 |
| N#C[Se]Cc1ccc(C[Se]C#N)[se]1 [(4) SDMSC, selenophenyl-2,5-di-methylene selenocyanate] | 2.30 | 10.17 ± 2.37 ^c nmol/min/mg protein | 2.43 | 10.75 ± 2.04 ^d nmol/min/mg protein | 0.93 | 3.58 ± 1.86 μmol/gm tissue weight | 1.39 | 5.34 ± 1.36 μmol/gm tissue weight |  | 1.13 | 0.45 ± 0.02 ^g μmol/min mg protein | 1.10 | 1.35 | 1.05 ± 0.28 μmol/min mg protein | 1.06 | 1.20 ± 0.11 ^g μmol/min mg protein | 1.23 | 0.58 ± 0.08 μmol/min mg protein | 1.00 | 0.34 ± 0.01 μmol/min mg protein | Ratio Test/con (UDP-GT) ([1]; dose 0.02 mmol/Kg body weight, listed as SDMSC 4): 2.67; GST act. [2, 8]: 0.44 ± 0.04 μmol/min mg protein; Ratio Test/con (GST) [2, 10]: 1.21; GST act. [2, 10]: 0.94 ± 0.18 μmol/min mg protein; Ratio Test/con (GST) [2, 4]: 1.50; GST act. [2, 4]: 1.69 ± 0.18 ^e μmol/min mg protein; Ratio Test/con (GST) [2, 12]: 1.17; GST act. [2, 12]: 0.55 ± 0.07 μmol/min mg protein; Ratio Test/con (GST) [2, 6]: 1.06; GST act. [2, 6]: 0.36 ± 0.02 μmol/min mg protein |
| N#C[Se]Cc1ccc(C[Se]C#N)cc1 [p-XSC, 1,4-phenylenebis(methylene)selenocyanate, reference compound] |  |  | 1.88 | 7.60 ± 2.47 ^d nmol/min/mg protein |  |  | 0.99 | 3.50 ± 0.75 μmol/gm tissue weight | 0.91 | 1.10 | 0.72 ± 0.07 μmol/min mg protein |  | 0.88 | 0.98 ± 0.27 μmol/min mg protein | 1.28 | 1.64 ± 0.45 μmol/min mg protein | 1.41 | 0.48 ± 0.13 μmol/min mg protein | 0.95 | 0.21 ± 0.06 μmol/min mg protein | GSH conc. (GSH; [6]): 1.93 ± 0.54 μmol/gm tissue weight; increase of GSH concentration (in words) (GSH; tissues of A/J mice): failed to induce a significant increase; induction of GST activity (in words) ([2]; tissues of A/J mice): failed to induce a significant increase |
